Data on nine compounds can be found in the NIST ThermoML archive (doi:10.1007/s10765-005-8096-3).

A short description of the data set: refractive index (Na D-line) (dimensionless). The following applies: 298.15 K; 101.33 kPa; Liquid; Standard Abbe refractometry.

Numbers after ± are expanded uncertainties.

One may read the refractive index as the speed of light in vacuum divided by its phase velocity in the sample.

Regarding `Cc1cc(C)cc(C)c1` [1,3,5-trimethylbenzene], the refractive index was 1.49682 ± 0.00075.
For the compound `Cc1ccc(C)cc1` [1,4-dimethylbenzene], the refractive index was determined as 1.49298 ± 0.00075.
For `CC(C)(C)c1ccccc1` [(1,1-dimethylethyl)benzene] the value was 1.49003 ± 0.00075.
For `CC(C)Cc1ccccc1` [(2-methylpropyl)benzene] the value was 1.48397 ± 0.00075.
The figure for `CCCCOC(C)=O` [butyl ethanoate] is 1.39176 ± 0.00075; for `CCCCc1ccccc1` [butylbenzene] it is 1.48735 ± 0.00075.
`CCc1ccccc1` [ethylbenzene]: the refractive index is given as 1.49316 ± 0.00075.
For `CC(C)c1ccccc1` [isopropylbenzene] the value was 1.48869 ± 0.00075; for `Cc1ccccc1` [toluene], 1.49399 ± 0.00075.
